Target: T1, DMGDH (His6-DMGDH, mature human dimethylglycine dehydrogenase) (Homo sapiens, UniProt Q9UI17)
T1 sequence (Q9UI17 51-866): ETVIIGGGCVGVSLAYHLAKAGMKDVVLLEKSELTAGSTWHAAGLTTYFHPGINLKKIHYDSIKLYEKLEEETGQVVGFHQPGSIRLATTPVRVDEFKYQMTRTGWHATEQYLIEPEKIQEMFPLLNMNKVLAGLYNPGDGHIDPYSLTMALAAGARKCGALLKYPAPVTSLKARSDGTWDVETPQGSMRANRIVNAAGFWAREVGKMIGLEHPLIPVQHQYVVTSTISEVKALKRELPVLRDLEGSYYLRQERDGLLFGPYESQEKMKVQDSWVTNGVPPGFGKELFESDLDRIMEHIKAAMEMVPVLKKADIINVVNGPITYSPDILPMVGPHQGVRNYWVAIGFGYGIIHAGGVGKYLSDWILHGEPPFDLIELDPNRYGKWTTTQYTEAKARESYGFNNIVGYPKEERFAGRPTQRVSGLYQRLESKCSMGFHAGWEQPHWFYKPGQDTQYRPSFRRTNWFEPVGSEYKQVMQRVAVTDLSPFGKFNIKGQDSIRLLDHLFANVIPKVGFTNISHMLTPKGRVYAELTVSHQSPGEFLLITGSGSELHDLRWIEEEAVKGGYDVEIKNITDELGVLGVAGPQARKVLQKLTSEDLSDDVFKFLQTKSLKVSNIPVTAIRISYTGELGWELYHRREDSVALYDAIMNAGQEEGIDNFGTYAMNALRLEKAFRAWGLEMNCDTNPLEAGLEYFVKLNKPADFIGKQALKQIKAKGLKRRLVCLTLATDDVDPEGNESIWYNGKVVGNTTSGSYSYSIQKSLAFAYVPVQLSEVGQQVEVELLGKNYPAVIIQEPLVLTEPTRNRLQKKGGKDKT
Test: ferricenium reduction at […] nm
Format: biochemical
Conditions: dimethylglycine as substrate, Hepes pH 7.5, 25°C

% decrease in Vmax at 4 μmol/L: ~ 25%
SMILES: Nc1nc2c(c(=O)[nH]1)N[C@@H](CNc1ccc(C(=O)N[C@@H](CCC(=O)O)C(=O)O)cc1)CN2 [tetrahydrofolate]
